From PMC10179701, “Towards Protection of Nucleic Acids from Herbicide Attack: Self-Assembly of Betaines Based on Pillar[5]arene with Glyphosate and DNA” (International Journal of Molecular Sciences, 2023)
Marks after values point to notes of the source that are not given here.

Legend:
[1] = target: DNA from salmon sperm; experiment: UV-Vis spectrophotometric titration, association with DNA from salmon sperm; type: binding; settings: 1:1 complex, Tris-HCl buffer pH 7.44, CDNA 2.5 × 10^–7 M, BindFit
Method: The interaction of GIS with a series of synthesized pillar[5]arenes 1–4 and DNA was studied by UV-Vis spectroscopy. UV-Vis spectroscopy is a universal method to study the complex properties of synthetic receptors. The interaction of GIS with DNA from salmon sperm was initially studied (Figure 5). DNA from salmon sperm was chosen as a model substrate due to its relatively low molecular weight and small size. The experiments were carried out in a Tris-HCl buffer system (pH = 7.44).
The association constants were determined by spectrophotometric titration to quantify the interaction of DNA with GIS. The UV-Vis spectra of the DNA–GIS system were recorded in such a way that the DNA concentration remained constant (2.5 × 10^–7 M), and the herbicide concentration ratio increased from 1:0.3 to 1:10 (Figure 5b). The obtained experimental data were processed by the BindFit program. The association constant of a 1:1 complex was calculated (Figure S23). The logarithm of the association constant of DNA with GIS was determined as lgKa = 4.92. […] However, in this case, the association constant of the complexes was determined with a large error.
Further, the interaction of macrocycles 1–4 with the DNA from salmon sperm in Tris-HCl was studied by UV-Vis spectroscopy. […] The association constant of compound 4-DNA complex was determined by spectrophotometric titration. […] The logarithm of the association constant of pillar[5]arene 4 with the DNA was determined as lgKa (4–DNA) = 5.24.
The association constant of compound 1-DNA complex was also determined by spectrophotometric titration (Figure S25b). The logarithm of the association constant of pillar[5]arene 1 with DNA was determined as lgKa(1–DNA) = 4.88 (Figure S27). […]
buffer solution. The UV spectra of the solutions were then recorded. The stability constant of complex was calculated by Bindfit. […]
volume of 3 mL with Tris‐HCl buffer solution. The UV spectra of the solutions were then recorded. The stability constant of each complex was calculated by Bindfit. […]
stability constant of complex was calculated by Bindfit. […]

[2] = test system: A549 cells; experiment: MTT test, A549 cells; settings: for IC50: A549, MTT, 24 h; for cytotoxic activity: A549, concentration range 2–100 μg/mL
Method: (§1) The next stage of this work was the study of pillar[5]arenes 1–4 ability to inhibit the viability and proliferative activity of embryonic lung epithelial (LEC) and human lung adenocarcinoma (A549) cells using the MTT test.
(§2) Further, the ability of GIS to inhibit the viability and proliferative activity of LEC and A549 cells was studied by the MTT test. […] The average inhibitory concentration (IC50) was calculated for GIS (Table 3). […]
(§3) 1.6. Cytotoxicity of pillar[5]arenes 1–4, GIS and their mixtures on A549 and LEC Cell Lines […]
(§4) activity of LEC cells and A549 cells was investigated using the MTT test according to [2]. A549 – human alveolar adenocarcinoma cell line (ATCC, Rockville, Maryland, USA) and cow embryo lung epithelial (LEC) cells (Animal Cell Culture Collection of Russian Academy of Agricultural Science, Kazan, Russia) were cultured in DMEM (GIBCO, Waltham, MA, USA) medium supplemented with 10% serum and 100 units/mL of penicillin (PanEco, Moscow, Russia) and streptomycin (PanEco, Moscow, Russia) in a humidified atmosphere with 5% CO2 at 37 °C. Cells were seeded in 96‐well plates at a concentration of 10^4 cells/well. After 24 h of cultivation, the medium was removed from the wells and replaced with a fresh one with the addition of the test substances. The volume of the culture medium in the wells was 100
(§5) μL. After 24 h incubation of cells in the presence of substances, the medium in the wells was replaced with a fresh one containing MTT reagent at a final concentration of 0.5 mg/mL. The cells were incubated with MTT for 4 h at 37 °C in an atmosphere of 5% CO2. Then, the medium was aspirated from the wells and 100 μL of dimethyl sulfoxide was added. Probes were incubated at 37 °C for 15 min in the dark for the formazan crystals to dissolve. The optical density of the formazan solution in the wells was measured using a plate reader (BioRad xMarkTM Microplate Spectrophotometer, USA) at a wavelength of 570 nm.
(§6) Three series of experiments were carried out with at least 8 replications for each variant in the series. […]

[3] = test system: LEC cells; experiment: MTT test, LEC cells; settings: for IC50: MTT, 24 h; for cytotoxic activity: concentration range 2–100 μg/mL
Method: as §1, §2, §3, §4, §5, §6

[4] = Dynamic light scattering of macrocycle aggregates in water; type: physicochemical; settings: H2O, 298 K
Method: The next stage of the work was the study of aggregation properties of both previously synthesized ester derivatives of amino acids 1 and 2, and macrocyclic betaine derivatives 3 and 4 by dynamic light scattering (DLS). The study was carried out in water in the 1 × 10^–6–1 × 10^–4 M concentration range (Figures S11–S22). The size of associates increases with decreasing macrocycle 1 concentration in solution (Table 1). A different pattern is observed for betaine derivative 3. Thus, the particles become coarser, and the polydispersity index (PDI) of the systems increased with an increase in compound 3 concentration, which is probably due to the formation of β-sheets by oligopeptide substituents. The presence of two oppositely charged fragments in one substituent leads to the fact that compound 3 becomes similar to surfactant molecules in terms of its aggregation properties.

[5] = test system: A549 cells; experiment: MTT assay, combined action of macrocycles with GIS on A549 cells; type: cell-based, human; settings: A549, pillararene 1 × 10^–5 M with GIS 3.47 × 10^–2 M
Method: The ability to inhibit the viability and proliferative activity of A549 cells of macrocycles 1–4 in the presence of GIS was studied using the MTT assay. […] The developed approach opens up the possibility of creating pillar[5]arene-based herbicide antidotes. […]
fresh one with the addition of the test substances.
Then, the medium was aspirated from the wells
and 100 μL of dimethyl sulfoxide was added.
the formazan crystals to dissolve. […]
substances. […] After 24 h of incubation cells were […]

Row | SMILES | lgKa, logarithm of the association constant with DNA [1] | concentration at which cytotoxic effect was recorded ([2]; A549) [µg/mL] | concentration without ability to reduce viability ([2]; A549) [µg/mL] | IC50 [2] | concentration at which cytotoxic effect was recorded [3] [µg/mL] | concentration without ability to reduce viability [3] [µg/mL] | IC50 [3] | polydispersity index (PDI) ([4]; 1 × 10^–4 M) | size of aggregates d ([4]; 1 × 10^–4 M) [nm] | polydispersity index (PDI) ([4]; 1 × 10^–5 M) | size of aggregates d ([4]; 1 × 10^–5 M) [nm] | polydispersity index (PDI) ([4]; 1 × 10^–6 M) | size of aggregates d ([4]; 1 × 10^–6 M) [nm] | cytotoxic activity [2] | cytotoxic activity [3] | change of toxicity on combined action with GIS [5]
1 | CC(C)N.O=C(O)CNCP(=O)(O)O [GIS, glyphosate isopropylamine salt, reference compound] | 4.92 | ≥ 10000 | ≤ 5000 | 10,180 μg/mL | ≥ 10000 | ≤ 5000 | 11,430 μg/mL |  |  |  |  |  |  |  |  | 
2 | C[N+](C)(CCCNC(=O)COc1cc2c(OCC(=O)NCCC[N+](C)(C)CC(=O)NCC(=O)NCC(=O)[O-])cc1Cc1cc(OCC(=O)NCCC[N+](C)(C)CC(=O)NCC(=O)NCC(=O)[O-])c(cc1OCC(=O)NCCC[N+](C)(C)CC(=O)NCC(=O)NCC(=O)[O-])Cc1cc(OCC(=O)NCCC[N+](C)(C)CC(=O)NCC(=O)NCC(=O)[O-])c(cc1OCC(=O)NCCC[N+](C)(C)CC(=O)NCC(=O)NCC(=O)[O-])Cc1cc(OCC(=O)NCCC[N+](C)(C)CC(=O)NCC(=O)NCC(=O)[O-])c(cc1OCC(=O)NCCC[N+](C)(C)CC(=O)NCC(=O)NCC(=O)[O-])Cc1cc(OCC(=O)NCCC[N+](C)(C)CC(=O)NCC(=O)NCC(=O)[O-])c(cc1OCC(=O)NCCC[N+](C)(C)CC(=O)NCC(=O)NCC(=O)[O-])C2)CC(=O)NCC(=O)NCC(=O)[O-] [Compound 3] |  |  |  | >100 * μg/mL |  |  | >100 * μg/mL | 0.55 | 565 ± 12 | 0.43 | 290 ± 38 | 0.39 | 276 ± 63 | did not show statistically significant cytotoxic activity | did not show statistically significant cytotoxic activity | No significant differences
3 | CCOC(=O)CNC(=O)CNC(=O)C[N+](C)(C)CCCNC(=O)COc1cc2c(OCC(=O)NCCC[N+](C)(C)CC(=O)NCC(=O)NCC(=O)OCC)cc1Cc1cc(OCC(=O)NCCC[N+](C)(C)CC(=O)NCC(=O)NCC(=O)OCC)c(cc1OCC(=O)NCCC[N+](C)(C)CC(=O)NCC(=O)NCC(=O)OCC)Cc1cc(OCC(=O)NCCC[N+](C)(C)CC(=O)NCC(=O)NCC(=O)OCC)c(cc1OCC(=O)NCCC[N+](C)(C)CC(=O)NCC(=O)NCC(=O)OCC)Cc1cc(OCC(=O)NCCC[N+](C)(C)CC(=O)NCC(=O)NCC(=O)OCC)c(cc1OCC(=O)NCCC[N+](C)(C)CC(=O)NCC(=O)NCC(=O)OCC)Cc1cc(OCC(=O)NCCC[N+](C)(C)CC(=O)NCC(=O)NCC(=O)OCC)c(cc1OCC(=O)NCCC[N+](C)(C)CC(=O)NCC(=O)NCC(=O)OCC)C2.[Br-].[Br-].[Br-].[Br-].[Br-].[Br-].[Br-].[Br-].[Br-].[Br-] [Compound 1] | 4.88 |  |  | >100 * μg/mL |  |  | >100 * μg/mL | 0.37 | 249 ± 17 | 0.35 | 286 ± 57 | 0.39 | 441 ± 81 | did not show statistically significant cytotoxic activity | did not show statistically significant cytotoxic activity | slight decrease in toxicity
